We go through 42 targets from the supplement of paper PMC12463676, “Small-molecule dissolution of stress granules by redox modulation benefits ALS models” (Nature Chemical Biology, 2025).

Compound in one assay: O=[As]([O-])(O)O.[K+] [potassium arsenate]
Nature of the assay: thermal stability z-score vs DMSO; higher = more thermally stabilized by treatment. The note with it: HeLa; arsenate concentration 1 mM. As for the experimental part:
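Cellular thermal proteome profiling in HeLa cells treated with 1 mM arsenate for 1 h (DMSO pretreatment), heated to ten temperatures (37-66.3 °C). Soluble protein was quantified by TMT mass spectrometry relative to DMSO controls; the thermal stability score was transformed to a z-score; mean of n = 3 experiments.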

Compound in another assay: NC(=O)CCCCC1CCSS1 [lipoamide]
The description is as above. The note with it: HeLa, lipoamide concentration 100 µM. On the procedure: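 Cellular thermal proteome profiling in HeLa cells. Cells were treated with 100 µM lipoamide for 1 h, with or without 1 mM arsenate for a further 1 h, then heated to ten temperatures (37-66.3 °C), and soluble protein was quantified by TMT mass spectrometry relative to 0.1% DMSO controls. The thermal stability score (sum of log2 fold changes minus the abundance score) was transformed to a z-score; mean of n = 3 experiments.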

Where [1] appears, read: arsenate co-treatment: 1 mM arsenate 1 h.
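Also: each temperature applied for 3 min, abundance score taken as mean log2 fold change at the two lowest temperatures, z-score obtained by mean subtraction and division by SD.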

Chain of UniProt P16615 (P16615 whole entry): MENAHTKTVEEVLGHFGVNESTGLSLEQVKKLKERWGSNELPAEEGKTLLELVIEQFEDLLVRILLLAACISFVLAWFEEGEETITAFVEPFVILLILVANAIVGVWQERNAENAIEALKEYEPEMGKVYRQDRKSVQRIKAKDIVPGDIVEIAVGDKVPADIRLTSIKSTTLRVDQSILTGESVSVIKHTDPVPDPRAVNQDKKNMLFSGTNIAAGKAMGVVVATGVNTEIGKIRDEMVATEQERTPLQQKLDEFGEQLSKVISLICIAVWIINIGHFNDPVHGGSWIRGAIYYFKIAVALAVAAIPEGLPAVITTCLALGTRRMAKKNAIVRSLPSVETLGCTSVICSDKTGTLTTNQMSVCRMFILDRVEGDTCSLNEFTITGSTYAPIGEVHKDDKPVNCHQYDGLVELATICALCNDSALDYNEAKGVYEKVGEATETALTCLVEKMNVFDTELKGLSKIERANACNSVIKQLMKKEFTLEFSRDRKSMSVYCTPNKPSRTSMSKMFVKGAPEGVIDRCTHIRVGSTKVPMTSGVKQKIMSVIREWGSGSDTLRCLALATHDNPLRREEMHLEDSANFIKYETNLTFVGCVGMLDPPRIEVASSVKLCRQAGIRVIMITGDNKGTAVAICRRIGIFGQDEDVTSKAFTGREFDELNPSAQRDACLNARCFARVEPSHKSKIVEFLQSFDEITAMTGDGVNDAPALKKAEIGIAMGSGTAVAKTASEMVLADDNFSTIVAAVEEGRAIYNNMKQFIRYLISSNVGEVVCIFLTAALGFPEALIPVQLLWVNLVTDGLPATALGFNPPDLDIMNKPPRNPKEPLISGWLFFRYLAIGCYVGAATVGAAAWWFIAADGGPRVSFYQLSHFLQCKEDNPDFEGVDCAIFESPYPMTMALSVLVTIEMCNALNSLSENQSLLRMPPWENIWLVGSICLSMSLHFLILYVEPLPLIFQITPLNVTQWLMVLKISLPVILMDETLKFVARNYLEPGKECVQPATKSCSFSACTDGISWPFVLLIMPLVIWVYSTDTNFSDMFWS
Chain of UniProt P56134 (P56134 whole entry): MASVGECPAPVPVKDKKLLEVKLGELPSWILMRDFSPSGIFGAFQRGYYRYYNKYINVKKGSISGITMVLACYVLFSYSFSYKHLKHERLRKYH
Chain of UniProt O75964 (O75964 whole entry): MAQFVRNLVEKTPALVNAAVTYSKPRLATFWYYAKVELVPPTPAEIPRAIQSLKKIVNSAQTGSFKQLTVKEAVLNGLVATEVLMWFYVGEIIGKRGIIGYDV
Chain of UniProt P23634 (P23634 whole entry): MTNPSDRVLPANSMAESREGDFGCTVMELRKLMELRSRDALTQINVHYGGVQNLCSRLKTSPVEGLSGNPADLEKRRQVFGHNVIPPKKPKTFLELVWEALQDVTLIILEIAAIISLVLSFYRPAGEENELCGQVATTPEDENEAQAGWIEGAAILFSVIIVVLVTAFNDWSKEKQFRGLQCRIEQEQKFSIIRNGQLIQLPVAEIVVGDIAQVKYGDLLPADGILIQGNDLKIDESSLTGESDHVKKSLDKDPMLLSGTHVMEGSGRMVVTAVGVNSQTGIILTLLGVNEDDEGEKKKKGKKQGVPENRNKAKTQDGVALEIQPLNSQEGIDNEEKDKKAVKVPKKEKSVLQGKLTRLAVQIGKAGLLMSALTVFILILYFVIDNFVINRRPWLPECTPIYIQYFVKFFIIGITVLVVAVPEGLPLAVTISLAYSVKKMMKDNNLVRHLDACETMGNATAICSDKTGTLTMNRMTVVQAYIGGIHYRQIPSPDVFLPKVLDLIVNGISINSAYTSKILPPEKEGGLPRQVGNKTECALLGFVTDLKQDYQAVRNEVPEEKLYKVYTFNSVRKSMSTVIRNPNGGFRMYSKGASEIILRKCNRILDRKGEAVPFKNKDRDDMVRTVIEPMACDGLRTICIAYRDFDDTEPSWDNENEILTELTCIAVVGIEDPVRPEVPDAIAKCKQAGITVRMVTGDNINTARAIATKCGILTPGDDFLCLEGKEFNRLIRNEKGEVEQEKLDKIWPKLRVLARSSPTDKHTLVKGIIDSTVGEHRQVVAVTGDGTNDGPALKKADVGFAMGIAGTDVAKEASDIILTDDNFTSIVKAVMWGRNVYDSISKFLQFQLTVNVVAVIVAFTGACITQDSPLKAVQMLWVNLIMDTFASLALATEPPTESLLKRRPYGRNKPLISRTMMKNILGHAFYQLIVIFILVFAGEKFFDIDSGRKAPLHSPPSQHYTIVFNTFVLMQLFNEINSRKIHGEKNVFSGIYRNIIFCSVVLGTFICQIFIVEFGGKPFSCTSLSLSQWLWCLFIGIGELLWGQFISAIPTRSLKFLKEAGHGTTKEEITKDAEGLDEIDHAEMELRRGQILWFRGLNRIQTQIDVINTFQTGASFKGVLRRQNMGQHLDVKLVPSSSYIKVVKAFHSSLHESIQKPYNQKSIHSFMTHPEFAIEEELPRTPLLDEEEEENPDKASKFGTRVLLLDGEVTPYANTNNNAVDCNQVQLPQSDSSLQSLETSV
Chain of UniProt P36542 (P36542 whole entry): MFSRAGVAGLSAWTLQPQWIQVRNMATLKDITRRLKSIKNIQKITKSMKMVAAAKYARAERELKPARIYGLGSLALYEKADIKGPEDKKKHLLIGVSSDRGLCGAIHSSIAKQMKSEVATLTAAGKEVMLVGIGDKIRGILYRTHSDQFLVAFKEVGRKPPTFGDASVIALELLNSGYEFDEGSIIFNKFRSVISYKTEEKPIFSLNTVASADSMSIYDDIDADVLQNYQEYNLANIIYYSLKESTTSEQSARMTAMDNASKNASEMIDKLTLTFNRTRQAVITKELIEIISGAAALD
Chain of UniProt Q676U5 (Q676U5 whole entry): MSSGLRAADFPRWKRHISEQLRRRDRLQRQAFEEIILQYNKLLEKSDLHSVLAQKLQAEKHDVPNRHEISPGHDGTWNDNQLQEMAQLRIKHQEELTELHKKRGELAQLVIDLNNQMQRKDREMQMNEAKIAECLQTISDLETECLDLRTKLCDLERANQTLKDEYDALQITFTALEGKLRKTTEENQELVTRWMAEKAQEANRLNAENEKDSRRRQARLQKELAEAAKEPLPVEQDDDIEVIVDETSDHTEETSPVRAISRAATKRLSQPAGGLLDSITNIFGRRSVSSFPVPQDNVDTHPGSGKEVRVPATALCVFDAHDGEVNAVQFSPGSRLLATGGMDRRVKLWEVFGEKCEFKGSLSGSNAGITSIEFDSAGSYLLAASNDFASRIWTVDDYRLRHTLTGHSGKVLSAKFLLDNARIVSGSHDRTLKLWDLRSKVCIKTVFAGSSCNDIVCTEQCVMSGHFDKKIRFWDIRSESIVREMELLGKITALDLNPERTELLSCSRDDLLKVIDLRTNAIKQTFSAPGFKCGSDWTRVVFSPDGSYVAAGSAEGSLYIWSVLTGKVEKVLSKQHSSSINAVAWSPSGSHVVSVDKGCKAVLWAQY
Chain of UniProt Q9BSB4 (Q9BSB4 whole entry): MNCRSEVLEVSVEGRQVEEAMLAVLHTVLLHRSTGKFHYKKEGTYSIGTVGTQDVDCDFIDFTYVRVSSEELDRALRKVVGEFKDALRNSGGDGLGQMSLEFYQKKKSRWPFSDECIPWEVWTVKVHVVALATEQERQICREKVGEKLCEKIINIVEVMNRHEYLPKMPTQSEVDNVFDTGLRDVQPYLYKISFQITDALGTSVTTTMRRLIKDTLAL
Chain of UniProt P98194 (P98194 whole entry): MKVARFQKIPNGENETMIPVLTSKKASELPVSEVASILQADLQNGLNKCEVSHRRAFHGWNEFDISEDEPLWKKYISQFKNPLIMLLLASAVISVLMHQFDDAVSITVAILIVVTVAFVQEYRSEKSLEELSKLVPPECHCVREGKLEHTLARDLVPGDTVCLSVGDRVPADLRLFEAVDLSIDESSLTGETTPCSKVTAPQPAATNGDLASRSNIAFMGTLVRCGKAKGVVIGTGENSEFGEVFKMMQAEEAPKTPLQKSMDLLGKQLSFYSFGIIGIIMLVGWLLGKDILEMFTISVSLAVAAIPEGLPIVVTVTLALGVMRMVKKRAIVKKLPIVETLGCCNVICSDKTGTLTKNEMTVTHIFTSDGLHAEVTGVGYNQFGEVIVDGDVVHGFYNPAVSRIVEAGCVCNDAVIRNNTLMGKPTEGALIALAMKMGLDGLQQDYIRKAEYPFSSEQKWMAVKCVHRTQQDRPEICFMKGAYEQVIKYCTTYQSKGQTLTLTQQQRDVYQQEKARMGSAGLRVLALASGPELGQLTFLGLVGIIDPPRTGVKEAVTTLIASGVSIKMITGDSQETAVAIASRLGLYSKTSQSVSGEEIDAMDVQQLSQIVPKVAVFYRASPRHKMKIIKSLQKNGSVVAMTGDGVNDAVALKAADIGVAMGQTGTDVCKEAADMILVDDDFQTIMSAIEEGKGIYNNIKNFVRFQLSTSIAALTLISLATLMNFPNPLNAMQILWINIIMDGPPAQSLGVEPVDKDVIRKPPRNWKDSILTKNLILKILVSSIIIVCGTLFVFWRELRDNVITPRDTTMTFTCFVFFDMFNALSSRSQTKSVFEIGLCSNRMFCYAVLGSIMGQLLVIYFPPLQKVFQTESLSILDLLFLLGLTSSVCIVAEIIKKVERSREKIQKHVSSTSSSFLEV
Chain of UniProt Q96DT6 (Q96DT6 whole entry): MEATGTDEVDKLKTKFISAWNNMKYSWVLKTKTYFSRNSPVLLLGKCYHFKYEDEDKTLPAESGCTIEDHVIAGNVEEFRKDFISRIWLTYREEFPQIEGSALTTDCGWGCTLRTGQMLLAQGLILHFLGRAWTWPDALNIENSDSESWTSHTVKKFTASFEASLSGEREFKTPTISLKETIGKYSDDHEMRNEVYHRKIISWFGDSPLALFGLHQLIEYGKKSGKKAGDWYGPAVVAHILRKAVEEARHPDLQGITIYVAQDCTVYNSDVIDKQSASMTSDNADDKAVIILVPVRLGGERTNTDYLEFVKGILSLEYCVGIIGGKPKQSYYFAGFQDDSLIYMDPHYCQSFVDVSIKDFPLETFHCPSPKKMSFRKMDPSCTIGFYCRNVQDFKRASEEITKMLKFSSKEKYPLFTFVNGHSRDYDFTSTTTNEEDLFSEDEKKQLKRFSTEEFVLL

As to ATF1 (UniProt P18846), the thermal stability z-score in the assay with potassium arsenate is -0.0555; in the assay with lipoamide (setting [1]), 1.13; with lipoamide (arsenate co-treatment: none), 1.84.
For the target ATF6 (UniProt P18850), the thermal stability z-score is -0.177 with potassium arsenate, -0.0284 in the assay with lipoamide (setting [1]) and -0.0127 with lipoamide (arsenate co-treatment: none).
As to ATF7IP (UniProt Q6VMQ6), the thermal stability z-score with potassium arsenate is -0.304; with lipoamide (setting [1]) it was 0.974; in the assay with lipoamide (arsenate co-treatment: none), 0.0822.
Taken in the same sequence, the figures for ATG2B (UniProt Q96BY7) were -0.0277, -0.149 and 0.0605.
With ATG3 (UniProt Q9NT62), the thermal stability z-score is -0.627 in the assay with potassium arsenate, 0.381 with lipoamide (setting [1]) and 0.021 with lipoamide (arsenate co-treatment: none).
Taken in the same sequence, the figures for ATG4A (UniProt Q8WYN0) were -0.744, 0.167 and 0.0706.
The matching figures for ATG4B (UniProt Q9Y4P1): -0.73, 0.0217 and -0.419.
Taken in the same sequence, the figures for ATG4C (UniProt Q96DT6) were 0.0488, 0.0282 and 0.0873.
On to ATG5 (UniProt Q9H1Y0), for which the thermal stability z-score in the assay with potassium arsenate is -0.959; in the assay with lipoamide (setting [1]), -0.255; in the assay with lipoamide (arsenate co-treatment: none), -0.342.
The matching figures for ATG7 (UniProt O95352): 0.16, -0.324 and 0.291.
Taken in the same sequence, the figures for ATG9A (UniProt Q7Z3C6) were 0.359, -0.389 and -0.339.
As to ATG13 (UniProt O75143), the thermal stability z-score with potassium arsenate was 0.699; in the assay with lipoamide (setting [1]) it was -0.00854; in the assay with lipoamide (arsenate co-treatment: none), 0.21.
The matching figures for ATG16L1 (UniProt Q676U5): -0.533, 0.346 and 0.282.
Taken in the same sequence, the figures for ATG101 (UniProt Q9BSB4) were 0.678, -0.67 and -1.42.
Taken in the same sequence, the figures for ATIC (UniProt P31939) were -1.07, 0.0982 and -0.0656.
ATL2 (UniProt Q8NHH9): the thermal stability z-score with potassium arsenate was 0.103; with lipoamide (setting [1]) it was -0.223; with lipoamide (arsenate co-treatment: none), -0.0585.
With ATL3 (UniProt Q6DD88), the thermal stability z-score with potassium arsenate is 0.731; with lipoamide (setting [1]), -0.399; in the assay with lipoamide (arsenate co-treatment: none), -0.0961.
Consider ATM (UniProt Q13315), for which the thermal stability z-score is 0.00628 with potassium arsenate, 0.678 with lipoamide (setting [1]) and -0.445 with lipoamide (arsenate co-treatment: none).
Take ATN1 (UniProt P54259): the thermal stability z-score came out at 0.759 in the assay with potassium arsenate, 0.566 in the assay with lipoamide (setting [1]) and 0.784 with lipoamide (arsenate co-treatment: none).
Taken in the same sequence, the figures for ATP1A1 (UniProt P05023) were -0.742, 0.0243 and 0.186.
The matching figures for ATP1B1 (UniProt P05026): -0.201, 0.104 and -0.207.
Taken in the same sequence, the figures for ATP1B3 (UniProt P54709) were -0.13, -0.0616 and -0.138.
Regarding ATP2A2 (UniProt P16615), the thermal stability z-score with potassium arsenate is -0.0158; with lipoamide (setting [1]), -1.16; with lipoamide (arsenate co-treatment: none), -0.667.
Regarding ATP2B1 (UniProt P20020), the thermal stability z-score in the assay with potassium arsenate was -0.146; with lipoamide (setting [1]), 0.446; with lipoamide (arsenate co-treatment: none), 0.697.
In the case of ATP2B2 (UniProt Q01814), the thermal stability z-score with potassium arsenate is 0.106; with lipoamide (setting [1]) it was -0.146; with lipoamide (arsenate co-treatment: none), -0.424.
Taken in the same sequence, the figures for ATP2B4 (UniProt P23634) were -1.05, -0.147 and -0.0358.
As for ATP2C1 (UniProt P98194), the thermal stability z-score was -1.37 with potassium arsenate, -1.04 with lipoamide (setting [1]) and -0.728 in the assay with lipoamide (arsenate co-treatment: none).
The matching figures for ATP5A1 (UniProt P25705): -0.382, -0.144 and -0.0322.
Taken in the same sequence, the figures for ATP5B (UniProt P06576) were 0.0331, -0.424 and -0.332.
Taken in the same sequence, the figures for ATP5C1 (UniProt P36542) were -0.252, -0.36 and -0.306.
With ATP5D (UniProt P30049), the thermal stability z-score with potassium arsenate was found to be 0.463; in the assay with lipoamide (setting [1]), 1.09; in the assay with lipoamide (arsenate co-treatment: none), 0.762.
The matching figures for ATP5E (UniProt P56381): 0.00933, 0.582 and 0.508.
As for ATP5F1 (UniProt P24539), the thermal stability z-score with potassium arsenate was 0.226; in the assay with lipoamide (setting [1]) it was -0.648; with lipoamide (arsenate co-treatment: none), -0.133.
The matching figures for ATP5H (UniProt O75947): 0.504, 0.72 and 0.597.
Taken in the same sequence, the figures for ATP5J2 (UniProt P56134) were -0.0845, 0.46 and 0.37.
The matching figures for ATP5J (UniProt P18859): 1.53, 2.44 and 1.93.
For ATP5L (UniProt O75964), the thermal stability z-score in the assay with potassium arsenate is 0.595; with lipoamide (setting [1]) it was 0.758; with lipoamide (arsenate co-treatment: none) it was -1.18.
In the case of ATP5O (UniProt P48047), the thermal stability z-score in the assay with potassium arsenate was -0.119; with lipoamide (setting [1]) it was 0.0702; in the assay with lipoamide (arsenate co-treatment: none), -0.283.
Taken in the same sequence, the figures for ATP6AP1 (UniProt Q15904) were 0.569, -0.952 and -0.601.
Consider ATP6AP2 (UniProt O75787), for which the thermal stability z-score is -0.366 with potassium arsenate, -2.63 with lipoamide (setting [1]) and -2.3 in the assay with lipoamide (arsenate co-treatment: none).
The matching figures for ATP6V0A1 (UniProt Q93050): 0.705, 0.0809 and 0.332.
The matching figures for ATP6V0A2 (UniProt Q9Y487): -0.424, -0.105 and 0.146.
